Laboratory results: PMC8472139, “Neuroprotective Effect of a Novel ATP-Synthase Inhibitor Bedaquiline in Cerebral Ischemia-Reperfusion Injury” (International Journal of Molecular Sciences, 2021)

Molecular target: T1, F1F0-ATP synthase (ATPase, complex V) (Rattus norvegicus, UniProt P05504+Q06645)
T1 construct: gene Atp5mc1; native complex from brain mitochondria (male Wistar rat), immunocaptured in microplate wells (Abcam ab109714 kit); mature c subunit is identical from Atp5mc1/Atp5mc2/Atp5mc3; with ATP synthase F(1) complex subunit alpha, mitochondrial; ATP synthase F(1) complex catalytic subunit beta, mitochondrial; ATP synthase F(1) complex subunit gamma, mitochondrial; ATP synthase F(1) complex subunit delta, mitochondrial; ATP synthase F(1) complex subunit epsilon, mitochondrial; ATP synthase peripheral stalk subunit OSCP, mitochondrial; ATP synthase peripheral stalk-membrane subunit b, mitochondrial
Assay: ATP hydrolysis coupled to NADH oxidation, absorbance […] nm, immunocapture kit
Assay type: biochemical

inhibition at 5 µM: ~50%
SMILES: COc1nc2ccc(Br)cc2cc1[C@@H](c1ccccc1)[C@@](O)(CCN(C)C)c1cccc2ccccc12 [BDQ, Bedaquiline]
